From PubChem BioAssay AID226 (DTP/NCI, 2004)
Values joined by “and” are separate entries in the source; they are usually repeats but may differ in a detail not shown here. Equal entries are not always repeated. Toxic doses and inconclusive results are not listed. Rule for the calls: active = survival T/C of 150% or more; inactive = T/C below 125% in these data.

Tested on: B6C3F1 mice, intracerebral ependymoblastoma, median survival T/C
Assay: NCI In Vivo Anticancer Drug Screen. Data for tumor model Ependymoblastoma (intracerebral) in B6C3F1 mice
Settings: endpoint: median survival time, higher = longer survival
Protocol: The antitumor activity of compounds was measured in mice bearing transplantable tumors. Survival or tumor size were measured and the results are expressed as the measurement made in the treated group (T) divided by the measurement made in the vehicle treated control group (C). The tumor model used in this assay is Ependymoblastoma (intracerebral) in B6C3F1 mice

[1] = dose: 32.0 mg/kg/injection, schedule: Q01DX005 (ip), vehicle: saline
[2] = dose: 64.0 mg/kg/injection, schedule: Q01DX005 (ip), vehicle: saline
[3] = dose: 128.0 mg/kg/injection, schedule: Q01DX005 (ip), vehicle: saline
[4] = dose: 256.0 mg/kg/injection, schedule: Q01DX005 (ip), vehicle: saline

Measured: T/C

NC(=S)c1cn(C2OC(CO)C(O)C2O)c2ncnc(N)c12 (stereo not given)
inactive: dose: 1.88 mg/kg/injection, schedule: Q01DX005 (ip), vehicle: suspension in saline 94 % of control | dose: 3.75 mg/kg/injection, schedule: Q01DX005 (ip), vehicle: suspension in saline 97 % of control | dose: 7.5 mg/kg/injection, schedule: Q01DX005 (ip), vehicle: suspension in saline 108 % of control

O=NN(CCCl)C(=O)NC1OC(CO)C(O)C(O)C1O (stereo not given)
inactive: dose: 0.31 mg/kg/injection, schedule: Q01DX009 (ip), vehicle: saline 104 % of control | dose: 0.63 mg/kg/injection, schedule: Q01DX009 (ip), vehicle: saline 115 % of control | dose: 1.0 mg/kg/injection, schedule: Q01DX005 (ip), vehicle: saline 119 % of control | dose: 2.0 mg/kg/injection, schedule: Q01DX005 (ip), vehicle: saline 113 % of control | dose: 4.0 mg/kg/injection, schedule: Q01DX001 (ip), vehicle: saline 108 % of control | dose: 4.0 mg/kg/injection, schedule: Q01DX005 (ip), vehicle: saline 122 % of control | dose: 8.0 mg/kg/injection, schedule: Q01DX001 (ip), vehicle: saline 105 % of control | dose: 16.0 mg/kg/injection, schedule: Q01DX001 (ip), vehicle: saline 105 % of control | dose: 32.0 mg/kg/injection, schedule: Q01DX001 (ip), vehicle: saline 100 % of control | dose: 64.0 mg/kg/injection, schedule: Q01DX001 (ip), vehicle: saline 108 % of control | dose: 128.0 mg/kg/injection, schedule: Q01DX001 (ip), vehicle: saline 94 % of control

CC(=O)OCC1OC(n2cnc3c(=S)nc(N)[nH]c32)C(OC(C)=O)C1OC(C)=O (stereo not given)
inactive: dose: 3.12 mg/kg/injection, schedule: Q01DX005 (ip), vehicle: saline 102 % of control and 109 % of control | dose: 6.25 mg/kg/injection, schedule: Q01DX005 (ip), vehicle: saline 104 % of control and 105 % of control and 116 % of control | dose: 12.5 mg/kg/injection, schedule: Q01DX005 (ip), vehicle: saline 98 % of control and 110 % of control | dose: 25.0 mg/kg/injection, schedule: Q01DX005 (ip), vehicle: saline 104 % of control

C=CCSc1ncnc2c1ncn2C1OC(CO)C(O)C1O (stereo not given)
inactive: dose: 37.5 mg/kg/injection, schedule: Q01DX005 (ip), vehicle: saline with Tween-80 98 % of control | dose: 75.0 mg/kg/injection, schedule: Q01DX005 (ip), vehicle: saline with Tween-80 114 % of control | dose: 150.0 mg/kg/injection, schedule: Q01DX005 (ip), vehicle: saline with Tween-80 120 % of control | dose: 300.0 mg/kg/injection, schedule: Q01DX005 (ip), vehicle: saline with Tween-80 106 % of control

CN(C)/N=N/c1[nH]ncc1C(N)=O
active: [1] 150 % of control | [2] 176 % of control | dose: 128.0 mg/kg/injection, schedule: Q01DX005 (ip), vehicle: saline with Tween-80 151 % of control | [3] 155 % of control
inactive: [4] 96 % of control

CC(C)NCC(O)COc1cccc2ccccc12 (stereo not given)
inactive: dose: 4.0 mg/kg/injection, schedule: Q01DX005 (ip), vehicle: saline with Tween-80 107 % of control | dose: 4.0 mg/kg/injection, schedule: Q01DX009 (ip), vehicle: saline with Tween-80 107 % of control | dose: 8.0 mg/kg/injection, schedule: Q01DX005 (ip), vehicle: saline with Tween-80 101 % of control | dose: 8.0 mg/kg/injection, schedule: Q01DX009 (ip), vehicle: saline with Tween-80 101 % of control | dose: 16.0 mg/kg/injection, schedule: Q01DX005 (ip), vehicle: saline with Tween-80 112 % of control | dose: 16.0 mg/kg/injection, schedule: Q01DX009 (ip), vehicle: saline with Tween-80 115 % of control | dose: 32.0 mg/kg/injection, schedule: Q01DX005 (ip), vehicle: saline with Tween-80 107 % of control | dose: 32.0 mg/kg/injection, schedule: Q01DX009 (ip), vehicle: saline with Tween-80 105 % of control | dose: 64.0 mg/kg/injection, schedule: Q01DX005 (ip), vehicle: saline with Tween-80 107 % of control | dose: 64.0 mg/kg/injection, schedule: Q01DX009 (ip), vehicle: saline with Tween-80 107 % of control

ClC1=C(Cl)C2(Cl)C3C(Cl)C(Cl)CC3C1(Cl)C2(Cl)Cl (stereo not given)
inactive: dose: 6.0 mg/kg/injection, schedule: Q01DX005 (ip), vehicle: saline with Tween-80 99 % of control and 100 % of control and 105 % of control | dose: 6.25 mg/kg/injection, schedule: Q01DX005 (ip), vehicle: other 101 % of control | dose: 12.0 mg/kg/injection, schedule: Q01DX005 (ip), vehicle: saline with Tween-80 95 % of control and 96 % of control and 105 % of control | dose: 12.5 mg/kg/injection, schedule: Q01DX005 (ip), vehicle: other 108 % of control | dose: 24.0 mg/kg/injection, schedule: Q01DX005 (ip), vehicle: saline with Tween-80 96 % of control and 105 % of control and 87 % of control | dose: 25.0 mg/kg/injection, schedule: Q01DX005 (ip), vehicle: other 98 % of control | dose: 45.0 mg/kg/injection, schedule: Q01DX005 (ip), vehicle: saline with Tween-80 94 % of control and 101 % of control and 110 % of control | dose: 50.0 mg/kg/injection, schedule: Q01DX005 (ip), vehicle: other 109 % of control | dose: 90.0 mg/kg/injection, schedule: Q01DX005 (ip), vehicle: saline with Tween-80 101 % of control and 86 % of control and 89 % of control

O=C(NCCCl)NCCCl
inactive: dose: 6.25 mg/kg/injection, schedule: Q01DX005 (ip), vehicle: Klucel (hydroxypropylcellulose) (HPC) 102 % of control and 105 % of control | dose: 12.5 mg/kg/injection, schedule: Q01DX005 (ip), vehicle: Klucel (hydroxypropylcellulose) (HPC) 102 % of control and 104 % of control | dose: 25.0 mg/kg/injection, schedule: Q01DX005 (ip), vehicle: Klucel (hydroxypropylcellulose) (HPC) 93 % of control and 99 % of control | dose: 50.0 mg/kg/injection, schedule: Q01DX005 (ip), vehicle: Klucel (hydroxypropylcellulose) (HPC) 92 % of control and 103 % of control | dose: 100.0 mg/kg/injection, schedule: Q01DX005 (ip), vehicle: Klucel (hydroxypropylcellulose) (HPC) 98 % of control and 107 % of control | dose: 200.0 mg/kg/injection, schedule: Q01DX005 (ip), vehicle: Klucel (hydroxypropylcellulose) (HPC) 96 % of control and 107 % of control | dose: 400.0 mg/kg/injection, schedule: Q01DX005 (ip), vehicle: Klucel (hydroxypropylcellulose) (HPC) 108 % of control and 87 % of control

OCC1OC(n2cnc3c2NC=NC[C@H]3O)CC1O (stereo not given in full)
inactive: dose: 0.12 mg/kg/injection, schedule: Q#ADX018 (ip), vehicle: saline 102 % of control | dose: 0.25 mg/kg/injection, schedule: Q01DX005 (ip), vehicle: saline 108 % of control and 113 % of control | dose: 0.25 mg/kg/injection, schedule: Q#ADX018 (ip), vehicle: saline 103 % of control | dose: 0.5 mg/kg/injection, schedule: Q01DX005 (ip), vehicle: saline 100 % of control and 103 % of control | dose: 0.5 mg/kg/injection, schedule: Q01DX009 (ip), vehicle: saline 103 % of control and 116 % of control | dose: 0.5 mg/kg/injection, schedule: Q#A X010 (ip), vehicle: saline 122 % of control | dose: 1.0 mg/kg/injection, schedule: Q01DX009 (ip), vehicle: saline 88 % of control | dose: 2.0 mg/kg/injection, schedule: Q01DX009 (ip), vehicle: saline 91 % of control

O=C(O)C(O)C(O)C(=O)O.[NH-]C1CCCCC1[NH-].[Pt+2] (stereo not given)
inactive: dose: 2.0 mg/kg/injection, schedule: Q01DX005 (ip), vehicle: dextrose 96 % of control | dose: 4.0 mg/kg/injection, schedule: Q01DX005 (ip), vehicle: dextrose 110 % of control

C1CN(P2(N3CC3)=NP(N3CC3)(N3CC3)=NP(N3CC3)(N3CC3)=N2)CCO1 (stereo not given)
inactive: dose: 20.0 mg/kg/injection, schedule: Q01DX001 (ip), vehicle: saline 101 % of control | dose: 40.0 mg/kg/injection, schedule: Q01DX001 (ip), vehicle: saline 102 % of control | dose: 80.0 mg/kg/injection, schedule: Q01DX001 (ip), vehicle: saline 96 % of control

COc1cc2cc3c4cc(OC)c(OC)cc4cc[n+]3c(C)c2cc1OC (tested in a mixture with another compound)
inactive: dose: 16.0 mg/kg/injection, schedule: Q01DX005 (ip), vehicle: saline 94 % of control and 98 % of control and 111 % of control | [1] 100 % of control (2×) and 120 % of control | [2] 102 % of control and 105 % of control and 118 % of control | [3] 104 % of control and 109 % of control | [4] 106 % of control

CCC(C)Sc1nc(N)nc2c1ncn2C1OC(CO)C(O)C1O (stereo not given)
inactive: dose: 37.5 mg/kg/injection, schedule: Q01DX005 (ip), vehicle: Klucel (hydroxypropylcellulose) (HPC) 97 % of control and 119 % of control | dose: 75.0 mg/kg/injection, schedule: Q01DX005 (ip), vehicle: Klucel (hydroxypropylcellulose) (HPC) 113 % of control and 116 % of control | dose: 150.0 mg/kg/injection, schedule: Q01DX005 (ip), vehicle: Klucel (hydroxypropylcellulose) (HPC) 115 % of control | dose: 300.0 mg/kg/injection, schedule: Q01DX005 (ip), vehicle: Klucel (hydroxypropylcellulose) (HPC) 95 % of control and 113 % of control
